Assay results taken from patent US20110173718A1, “HERBICIDE TOLERANT PLANTS” (SYNGENTA CROP PROTECTION, INC., priority 2008, published 2011).
“And” between values parts separate entries of the source, which are not always exact repeats. Equal values may be shown once.

What was measured:
Type in all cases: in vivo
[1] = system: Chlamydomonas HST T0 tobacco lines; test: Glasshouse spray test, Chlamydomonas HST transgenic tobacco; conditions: 100 g, individual T0 lines
From the text: In just the same way the Chlamydomonas HST gene sequence (AM285678) is codon-optimised for tobacco and cloned behind the double Cauliflower mosaic virus 35S promoter and Tobacco mosaic virus enhancer sequences and in front of a nos gene terminator, cloned into a binary vector and transformed into tobacco to produce a population of T0 plants.

[2] = system: wild-type (WT) Samsun tobacco; test: Glasshouse spray test, wild-type tobacco; conditions: for blch (% bleaching at the meristem relative to control plants) / ht (% height reduction relative to control plants): 100 g; for % damage at 7 DAT: WT Samsun, individual plants; for blch: % bleaching at the meristem relative to control plants / ht: % height reduction relative to control plants: WT tobacco
Procedure, shortened: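 Wild-type Samsun tobacco grown from seed was planted in 3 inch pots, grown on under glasshouse conditions (about 24-27° C. day, 18-21° C. night, ~14 h photoperiod, ~65% humidity) and spray-treated alongside transgenic lines. Test chemicals were formulated in water with 0.2% X77 surfactant and applied by track sprayer at 200 l/ha. Height reduction, bleaching and damage were scored against unsprayed control plants of like size.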

[3] = system: Arabidopsis HST transgenic tobacco plants; test: Glasshouse spray test, Arabidopsis HST transgenic tobacco; conditions: D2 line (Arabidopsis HST, segregating T1), individual plants
[4] = 7 DAT, WT, Arabidopsis HST section
[5] = 17 DAT, WT, Chlamydomonas HST section
[6] = spray with 500 g of compound 2.30, 7 DAT
[7] = spray with 500 g of compound 2.30, 17 DAT

CC(C)C(=O)Oc1c(-c2c(F)ccc(Br)c2Cl)c(=O)n(CC(F)F)c2nccnc12 [Compound 2.30]
blch (% bleaching at the meristem relative to control plants) ([1]; 17 DAT): 0% (14×) and 15% (3×) and 20% and 65% and 10% (2×) and 90% and 75%
ht (% height reduction relative to control plants) ([1]; 17 DAT): 15% (2×) and 10% (2×) and 55% (3×) and 25% and 30% (2×) and 0% (2×) and 5% and 8% and 20% (3×) and 40% (2×) and 50% and 35% and 90% and 85%
blch (% bleaching at the meristem relative to control plants) ([1]; 26 DAT): 0% (19×) and 25% and 85% (2×) and 90% (2×)
ht (% height reduction relative to control plants) ([1]; 26 DAT): 30% (5×) and 20% (6×) and 70% and 10% and 80% and 35% (2×) and 90% (2×) and 50% and 25% and 75% (2×) and 95% and 60%
blch (% bleaching at the meristem relative to control plants) [2, 4]: 85% and 70% and 75% and 80%
ht (% height reduction relative to control plants) [2, 4]: 80% and 85% and 75%
blch (% bleaching at the meristem relative to control plants) ([2]; 7 DAT, WT, wheat HPPD section): 85% and 70% and 75% and 80%
ht (% height reduction relative to control plants) ([2]; 7 DAT, WT, wheat HPPD section): 80% and 85% and 75%
blch (% bleaching at the meristem relative to control plants) [2, 5]: 85% and 70% and 75% and 80%
ht (% height reduction relative to control plants) [2, 5]: 80% and 85% and 75%
ht (% height reduction relative to control plants) ([2]; 21 DAT, WT, wheat HPPD section): 95% and 90% and 75% and 80%
ht (% height reduction relative to control plants) ([2]; 26 DAT, WT, Arabidopsis HST section): 95% and 90% and 75% and 80%
ht (% height reduction relative to control plants) ([2]; 26 DAT, WT, Chlamydomonas HST section): 95% and 90% and 75% and 80%
percent damage at 6 DAT ([2]; 150 g/ha, WT, reps): 70%
% damage at 7 DAT ([2]; 150 gai/ha): 75% and 80% and 85%
% damage at 7 DAT ([2]; 300 gai/ha): 75% and 70% and 80%
% damage at 7 DAT ([2]; 450 gai/ha): 70% (2×) and 75%
herbicide % damage ([2]; Compound 2.30, 150 g/ha, 14 DAT, WT control, reps): 60% and 70% and 75%
blch: % bleaching at the meristem relative to control plants [2, 6]: 70% and 75% and 80%
ht: % height reduction relative to control plants [2, 6]: 85% and 90%
blch: % bleaching at the meristem relative to control plants [2, 7]: 80% and 70% and 75%
ht: % height reduction relative to control plants [2, 7]: 90% and 85%
ht: % height reduction relative to control plants ([2]; spray with 500 g of compound 2.30, 26 DAT): 70% and 85% and 100% and 90% and 80%
% damage at 7 DAT ([3]; 150 gai/ha): 65% and 40% (2×) and 50% and 55% and 60% (2×) and 90%
% damage at 7 DAT ([3]; 300 gai/ha): 60% (2×) and 80% and 95% and 98% and 70% and 90% (2×)
% damage at 7 DAT ([3]; 450 gai/ha): 35% (2×) and 20% and 55% (2×) and 60% and 65% and 70%
